Patent US4550186A, “Binuclear copper (II) carboxylates formed from amine-carboxyboranes” (Duke University, priority 1983, dated 1985)
pIC50: −log10 of the molar value.

Legend:
[1] = system: Mitochondrial Citrate Exchange; assay: In vitro liver enzyme study: mitochondrial citrate exchange; format: biochemical, mouse; details: in vitro CF1 liver, 10 min
Method: (§1) In vitro enzymatic studies were determined using 10% homogenates of CF1 male mouse liver with 50-200 μM of test drugs. In vivo enzymatic studies were determined using 10% homogenates of liver from CF1 male mice obtained after administering the agents for 16 days at a dose ranging from 2.5-20 mg/kg/day intraperitoneally. The liver homogenates for both in vitro and in vivo studies were prepared in 0.25M sucrose and 0.001M (ethylenedinitrilo)tetraacetic acid. Acetyl coenzyme A synthetase and adenosine triphosphate dependent citrate lyase activities were determined spectrophotometrically at 540 nm as the hydroxylamate of acetyl coenzyme A formed after 30 min at 37° C. Mitochondrial citrate exchange was determined by the procedure of Robinson et al [Eur. J. Biochem., 216, 63 (1970)] using ^14 C-sodium bicarbonate (41 mCi/mmol) incorporated into mitochondrial ^14 C-citrate after isolating rat mitochondria (9000 g×10 min) from the homogenates. The exchanges of the ^14 C-citrate were determined after incubating the mitochondrial fraction which was loaded with labeled citrate and test drugs for 10 min. Then the radioactivity was measured in the mitochondrial and supernantant fractions in scintillation fluid and expressed as a percentage. Cholesterol side chain oxidation was determined by the method of Kritchevsky and Tepper [Artherosclerosis, 18, 93 (1973)] using (26-^14 C) cholesterol (50 mCi/mmol) and mitochondria isolated from rat liver homogenates. […] Fatty acid synthetase activity was determined by the method of Brady et al [J. Biol. Chem., 235, 3093 (1960)] using [2-^14 C] malonyl-coenzyme A (37.5 mCi/mmol) which was incorporated into newly synthesized fatty acids that were extracted with ether and counted. Acyl transferase activity was determined with glycerol-3phosphate [L-2-^3 H(N)] […] HCl and counted. Phosphatidate phosphohydrolase activity was measured as the inorganic phosphate released after 30 min from phosphatidic acid by the method of Mavis et al [J. Lipid Res., 19, 467 (1978)]. […]

Acetyl CoA Carboxylase = molecular target: T1, Acetyl CoA Carboxylase (Mus musculus, UniProt Q5SWU9); assay: In vivo liver enzyme study: acetyl CoA carboxylase; details: CF1 liver after 16 days i.p.
T1 construct: 10% homogenates of CF1 male mouse liver; from tissue; host or cells: CF1 male mouse liver, 10% homogenate
Method: as §1

[2] = system: aspartate transcarbamylase; assay: In vivo aspartate transcarbamylase activity; set-up: species or system mouse
Method: (§2) CF1 male mice (~30 g) were implanted with 2×10^6 Ehrlich ascites tumor cells, intraperitoneally on Day 0. Compound I was suspended by homogenation in 0.05% polysorbate.80-water and administered intraperitoneally at 10 and 20 mg/kg for 9 days to determine its effectiveness for inhibition of tumor growth. Mice were sacrificed on Day 10, and the ascites fluid was collected from the peritoneal cavity. The volume and ascrit (packed cell volume) were determined for each animal and the percent inhibition of tumor growth was calculated. For the metabolic studies, mice were treated on Days 8 and 9 with 10 mg/kg of Compound I, intraperitoneally. […]
(§3) Carbamyl phosphate synthetase activity was determined using the reaction medium of Kalman et al [Am. […] Citrulline formed from ornithine was measured at 490 nm by the method of Archibald [J. Biol. Chem., 156, 121 (1944)]. […] The ^14 CO2 generated in 15 min was trapped in 1M KOH and counted. Thymidylate synthetase activity was determined using a post-mitochondrial supernatant (9000 g×10 min) and 5 μCi of 5-^3 H-deoxyuridine monophosphate (14 Ci/mmol) according to the method of Kampf et al [ J. Med. Chem., 19, 903 (1976)]. ^14 C-Formate incorporation into purines was determined by the method of Spassova et al [Biochem. Pharmacol., 25, 923 (1976)] using 0.5 μCi of ^14 C-formic acid (52.0 mCi/mmol). […] The Rf value for xanthine monophosphate was scraped and counted. […]

[3] = system: formate incorporation into purine; assay: In vitro formate incorporation into purine (supernatant fraction); format: biochemical, mouse; details: read-out: ID50, formate incorporation into purine
Method: as §2, §3

{Cu[(CH3)3 N.BH2 CO2 ]2.(CH3)3 N.BH2 COOH} [Compound I]
Mitochondrial Citrate Exchange ([1]; 50 μM): 105 ± 6 Percent Control
Mitochondrial Citrate Exchange ([1]; 100 μM): 104 ± 6 Percent Control
Mitochondrial Citrate Exchange ([1]; 200 μM): 103 ± 7 Percent Control
Acetyl CoA Carboxylase (Acetyl CoA Carboxylase; 2.5 mg/kg): 103 ± 6% of control
Acetyl CoA Carboxylase (Acetyl CoA Carboxylase; 5.0 mg/kg): 95% of control
Acetyl CoA Carboxylase (Acetyl CoA Carboxylase; 10 mg/kg): 120 ± 7% of control
Aspartate carbamyl transferase activity suppressed [2]: 11%
Aspartate transcarbamylase activity ([2]; 10 mg/kg/day I.P. on Days 8 and 9): 89 ± 8 % Control
pIC50 [3]: 2.77
